{"source": "paper PMC3674150", "about": "(Cancer research, 2013)", "key": {"K562 cells [1]": {"system": "K562 cells"}, "K562 cells [2]": {"system": "K562 cells", "test": "Apoptosis assay", "assay_type": "cell-based, human"}, "[3]": {"conditions": "clinical, cited from earlier work"}, "[4]": {"system": "BCR-ABL signaling (pCrkL, pSTAT5) in K562 cells", "conditions": "500 and 5000 nM for 2 h, FACS"}, "[5]": {"system": "BCR-ABL signaling (pCrkL) in K562 cells"}, "K562 cells [6]": {"system": "K562 cells", "test": "Detection of inhibitors by LC/MS/MS in cellular and media fractions"}, "primary CML cells": {"system": "primary CML cells", "test": "Apoptosis assay in primary CML mononuclear cells after washout", "conditions": "primary CML cells (12/209), 4 h at 100 nM"}, "[7]": {"system": "BCR-ABL signaling (pSTAT5) in primary CML cells", "test": "Phosflow FACS analysis of pSTAT5 in primary CML cells", "assay_type": "cell-based, human", "conditions": "100 nM for 4 h"}, "[8]": {"conditions": "2 h exposure at 10 nM, annexin V at 72 h"}, "[9]": {"conditions": "2 h exposure at 10 nM, standard washout, annexin V at 72 h"}, "[10]": {"conditions": "2 h exposure at 100 nM, annexin V at 72 h"}, "[11]": {"conditions": "2 h exposure at 100 nM, standard washout, annexin V at 72 h"}, "[12]": {"conditions": "100 nM for 2 h, after standard washout"}}, "note": "Like-named read-outs stand apart in the source and are kept apart here."}
{"smiles": "CNC(=O)c1cc(Oc2ccc(NC(=O)Nc3cc(C(C)(C)C)nn3-c3ccc4ncccc4c3)c(F)c2)ccn1", "note": "[DCC-2036, rebastinib]", "values": [{"measurement": "TKI in the media fraction", "setting": "K562 cells [1]", "value": "either not detected or below the lower limit of quantitation"}, {"measurement": "concentration inducing substantial apoptosis over untreated", "setting": "K562 cells [2]; continuous exposure for 72 h", "value": "25 to 50", "unit": "nM"}]}
{"smiles": "Cc1nc(Nc2ncc(C(=O)Nc3c(C)cccc3Cl)s2)cc(N2CCN(CCO)CC2)n1", "note": "[dasatinib]", "values": [{"measurement": "plasma half-life", "setting": "[3]; ref 9, 21", "value": "3 to 5", "unit": "h"}, {"measurement": "plasma half-life", "setting": "[3]; ref 10, 11", "value": "3 to 5", "unit": "h"}, {"measurement": "serum half-life", "setting": "[3]; ref 13", "value": "3 to 5", "unit": "h"}, {"measurement": "TKI in the media fraction", "setting": "K562 cells [1]", "value": "either not detected or below the lower limit of quantitation"}, {"measurement": "apoptosis after expanded washout", "setting": "K562 cells [2]; [8]", "value": "background levels of apoptosis"}, {"measurement": "apoptosis after standard washout compared to continuous exposure", "setting": "K562 cells [2]; [9]", "value": "abolished onset of apoptosis"}, {"measurement": "apoptosis after expanded washout", "setting": "K562 cells [2]; [10]", "value": "moderate reduction in the extent of apoptosis"}, {"measurement": "apoptosis after standard washout compared to continuous exposure", "setting": "K562 cells [2]; [11]", "value": "only slightly diminished the extent of apoptosis"}, {"measurement": "apoptosis (annexin V-positive cells)", "setting": "K562 cells [2]; continuous exposure at 10 nM or 100 nM", "value": "substantial onset of apoptosis"}]}
{"smiles": "Cc1cn(-c2cc(NC(=O)c3ccc(C)c(Nc4nccc(-c5cccnc5)n4)c3)cc(C(F)(F)F)c2)cn1", "note": "[nilotinib]", "values": [{"measurement": "pCrkL after expanded washout", "setting": "[4]", "value": "pCrkL levels approximating pretreatment levels"}, {"measurement": "pCrkL signal inhibition at end of exposure", "setting": "[5]; 2 h exposure at 500 nM", "value": "near complete pCrkL signal blockade"}, {"measurement": "pCrkL signal inhibition at end of exposure", "setting": "[5]; 2 h exposure at 5000 nM", "value": "complete interruption"}, {"measurement": "media level of TKI", "setting": "K562 cells [1]; human, 2 h, 5000 nM", "value": 25.5, "unit": "nM"}, {"measurement": "apoptosis after expanded washout", "setting": "K562 cells [2]; 2 h exposure at 5000 nM, annexin V at 72 h", "value": "reduced to background levels"}, {"measurement": "apoptosis after standard washout", "setting": "K562 cells [2]; 2 h exposure at 5000 nM, standard washout, annexin V at 72 h", "value": "substantial apoptosis"}]}
{"smiles": "Cc1ccc(C(=O)Nc2ccc(CN3CCN(C)CC3)c(C(F)(F)F)c2)cc1C#Cc1cnc2cccnn12", "note": "[ponatinib]", "values": [{"measurement": "pCrkL level after treatment compared to untreated/pretreatment", "setting": "[5]; 2 h treatment at 10 nM, immunoblot", "value": "25-50%"}, {"measurement": "pCrkL level after treatment", "setting": "[5]; 2 h treatment at 100 nM, immunoblot", "value": "essentially undetectable levels"}, {"measurement": "intracellular inhibitor level", "setting": "K562 cells [6]; 10 nM for 2 h, after expanded washout", "value": 0.14, "unit": "ng/10^6 cells"}, {"measurement": "intracellular inhibitor level", "setting": "K562 cells [6]; 10 nM for 2 h, after standard washout", "value": 0.24, "unit": "ng/10^6 cells"}, {"measurement": "intracellular inhibitor level", "setting": "K562 cells [6]; 100 nM for 2 h, after expanded washout", "value": 0.87, "unit": "ng/10^6 cells"}, {"measurement": "intracellular inhibitor level", "setting": "K562 cells [6]; [12]", "value": 2.11, "unit": "ng/10^6 cells"}, {"measurement": "media level of TKI", "setting": "K562 cells [6]; [12]", "value": 6.68, "unit": "nM"}, {"measurement": "apoptosis after expanded washout", "setting": "K562 cells [2]; [8]", "value": "reduced to background levels"}, {"measurement": "apoptosis after standard washout compared to continuous exposure", "setting": "K562 cells [2]; [9]", "value": "minimal"}, {"measurement": "apoptosis after expanded washout", "setting": "K562 cells [2]; [10]", "value": "unaffected"}, {"measurement": "apoptosis after standard washout compared to continuous exposure", "setting": "K562 cells [2]; [11]", "value": "no reduction in apoptosis"}, {"measurement": "apoptosis after expanded washout", "setting": "primary CML cells", "value": "not completely back to baseline"}, {"measurement": "pSTAT5 at 24 h post expanded washout", "setting": "[7]", "value": "approaching but not quite reaching those of untreated cells"}, {"measurement": "pSTAT5 at 24 h post standard washout", "setting": "[7]", "value": "remained inhibited"}]}
